Source: patent US20260022142A1, “MACROCYCLIC IMMUNOMODULATORS” (Bristol-Myers Squibb Company, priority 2022, published 2026)
Bridge positions count the residues as written; N and C are the ends. Square brackets hold non-standard residues; d marks the D form. Peptide text beside a SMILES is read from it. * marks the point of attachment. ξ: configuration not given here. Bip = N[C@@H](Cc1ccc(-c2ccccc2)cc1)C(=O)O; Phe(3-Me) = Cc1cccc(C[C@H](N)C(=O)O)c1; Cha = N[C@@H](CC1CCCCC1)C(=O)O; dOrn = NCCC[C@@H](N)C(=O)O; dDab = NCC[C@@H](N)C(=O)O; Carboxymethyl = O=C(O)C*; Orn = NCCC[C@H](N)C(=O)O; dDap = NC[C@@H](N)C(=O)O; Aun = NCCCCCCCCCCC(=O)O; Dap = NC[C@H](N)C(=O)O; AEEA = NCCOCCOCC(=O)O; ξC = NC(CS)C(=O)O

Target: T1, PD-1/PD-L1 interaction (PE-labeled human PD-L1-Ig binding to Jurkat cell line over-expressing human PD-1) (Homo sapiens, UniProt Q15116)
T1 construct: expressed in transfected cells; host or cells: Jurkat
Assay: Jurkat-PD-1 Cell Binding High-Content Screening Assay (CBA)
Format: cell-based
Conditions: Jurkat cell line over-expressing human PD-1; PE-labeled PD-L1-Ig 20 nM final; read-out: Jurkat hPD1-PDL1 IC50
In short: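 First, compound is added to PD-1-expressing Jurkat cells in serum-containing DMEM and left 2 h at 37° C. Next, PE-conjugated PD-L1-Ig is introduced at 20 nM final concentration for 1 hour. Finally, cells are fixed in 4% paraformaldehyde with Hoechst 33342, washed and imaged.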

T1 sequence (Q15116 25-288): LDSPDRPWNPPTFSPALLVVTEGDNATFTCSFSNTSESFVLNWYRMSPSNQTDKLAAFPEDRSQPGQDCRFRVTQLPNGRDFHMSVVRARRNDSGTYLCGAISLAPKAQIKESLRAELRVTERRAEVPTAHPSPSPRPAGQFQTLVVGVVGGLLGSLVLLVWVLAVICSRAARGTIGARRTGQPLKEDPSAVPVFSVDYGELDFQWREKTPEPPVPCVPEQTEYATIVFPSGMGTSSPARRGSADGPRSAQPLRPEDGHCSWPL

Cc1cccc(C[C@@H]2NC(=O)[C@H](CC(=O)O)NC(=O)[C@H](Cc3ccc(OCC(=O)O)cc3)NC(=O)[C@H](CN)NC(=O)CSC[C@@H](C(=O)N[C@@H](C)C(=O)N[C@@H](CO)C(=O)NCCCCCCCCCCC(=O)O)NC(=O)[C@H]([C@@H](C)O)NC(=O)[C@H](C(C)C)NC(=O)[C@H](CC3CCCCC3)NC(=O)[C@H](Cc3cnc[nH]3)NC(=O)[C@@H](CC(C)C)NC(=O)[C@H](CCCN)NC(=O)[C@H](C(C)C)NC(=O)[C@H](Cc3ccc(-c4ccccc4)cc3)NC(=O)[C@H](C(C)C)NC2=O)c1 [Compound 1115] ({CH2CO}-[Dap]Y(Carboxymethyl)D[Phe(3-Me)]V[Bip]V[Orn][dL]H[Cha]VTCAS[Aun]-OH; thioether N-14)
IC50: 26 nM

CC(C)C[C@H]1NC(=O)[C@H](CCCN)NC(=O)[C@H](C(C)C)NC(=O)[C@H](Cc2ccc(-c3ccccc3)cc2)NC(=O)[C@H](C(C)C)NC(=O)[C@H](Cc2c[nH]c3ccccc23)NC(=O)[C@H](CC(=O)O)NC(=O)[C@H](Cc2ccc(OCC(=O)O)cc2)NC(=O)[C@H](CN)NC(=O)CSCC(C(=O)N[C@H](C)C(=O)NCCCCCCCCCCC(=O)O)NC(=O)[C@H]([C@@H](C)O)NC(=O)[C@H](C(C)C)NC(=O)[C@H](CC2CCCCC2)NC(=O)[C@H](Cc2cnc[nH]2)NC1=O (some centres unmarked) [Compound 1116]
IC50: 37.6 nM

CC(C)C[C@H]1NC(=O)[C@H](CCCN)NC(=O)[C@H](C(C)C)NC(=O)[C@H](Cc2ccc(-c3ccccc3)cc2)NC(=O)[C@H](C(C)C)NC(=O)[C@H](Cc2c[nH]c3ccccc23)NC(=O)[C@H](CC(=O)O)NC(=O)[C@H](Cc2ccc(OCC(=O)O)cc2)NC(=O)[C@H](CN)NC(=O)CSCC(C(=O)N[C@H](CN)C(=O)NCCCCCCCCCCC(=O)O)NC(=O)[C@H]([C@@H](C)O)NC(=O)[C@H](C(C)C)NC(=O)[C@H](CC2CCCCC2)NC(=O)[C@H](Cc2cnc[nH]2)NC1=O (stereo partly drawn) [Compound 1117] ({CH2CO}-[Dap]Y(Carboxymethyl)DWV[Bip]V[Orn][dL]H[Cha]VT[ξC][dDap][Aun]-OH; thioether N-14)
IC50: 48.4 nM

CC(C)C[C@H]1NC(=O)[C@H](CCCN)NC(=O)[C@H](C(C)C)NC(=O)[C@H](Cc2ccc(-c3ccccc3)cc2)NC(=O)[C@H](C(C)C)NC(=O)[C@H](Cc2c[nH]c3ccccc23)NC(=O)[C@H](CC(=O)O)NC(=O)[C@H](Cc2ccc(OCC(=O)O)cc2)NC(=O)[C@H](CN)NC(=O)CSCC(C(=O)N[C@H](CCN)C(=O)NCCCCCCCCCCC(=O)O)NC(=O)[C@H]([C@@H](C)O)NC(=O)[C@H](C(C)C)NC(=O)[C@H](CC2CCCCC2)NC(=O)[C@H](Cc2cnc[nH]2)NC1=O (stereo partly drawn) [Compound 1118] ({CH2CO}-[Dap]Y(Carboxymethyl)DWV[Bip]V[Orn][dL]H[Cha]VT[ξC][dDab][Aun]-OH; thioether N-14)
IC50: 30.7 nM

CC(C)C[C@H]1NC(=O)[C@H](CCCN)NC(=O)[C@H](C(C)C)NC(=O)[C@H](Cc2ccc(-c3ccccc3)cc2)NC(=O)[C@H](C(C)C)NC(=O)[C@H](Cc2c[nH]c3ccccc23)NC(=O)[C@H](CC(=O)O)NC(=O)[C@H](Cc2ccc(OCC(=O)O)cc2)NC(=O)[C@H](CN)NC(=O)CSCC(C(=O)N[C@H](CCCN)C(=O)NCCCCCCCCCCC(=O)O)NC(=O)[C@H]([C@@H](C)O)NC(=O)[C@H](C(C)C)NC(=O)[C@H](CC2CCCCC2)NC(=O)[C@H](Cc2cnc[nH]2)NC1=O (stereo partly drawn) [Compound 1119] ({CH2CO}-[Dap]Y(Carboxymethyl)DWV[Bip]V[Orn][dL]H[Cha]VT[ξC][dOrn][Aun]-OH; thioether N-14)
IC50: 57.5 nM

CC(C)C[C@H]1NC(=O)[C@H](CCCN)NC(=O)[C@H](C(C)C)NC(=O)[C@H](Cc2ccc(-c3ccccc3)cc2)NC(=O)[C@H](C(C)C)NC(=O)[C@H](Cc2c[nH]c3ccccc23)NC(=O)[C@H](CC(=O)O)NC(=O)[C@H](Cc2ccc(OCC(=O)O)cc2)NC(=O)[C@H](CN)NC(=O)CSCC(C(=O)N[C@H](CCCCN)C(=O)NCCCCCCCCCCC(=O)O)NC(=O)[C@H]([C@@H](C)O)NC(=O)[C@H](C(C)C)NC(=O)[C@H](CC2CCCCC2)NC(=O)[C@H](Cc2cnc[nH]2)NC1=O (stereo partly drawn) [Compound 1120] ({CH2CO}-[Dap]Y(Carboxymethyl)DWV[Bip]V[Orn][dL]H[Cha]VT[ξC][dK][Aun]-OH; thioether N-14)
IC50: 40.9 nM

CC(C)C[C@H]1NC(=O)[C@H](CCCN)NC(=O)[C@H](C(C)C)NC(=O)[C@H](Cc2ccc(-c3ccccc3)cc2)NC(=O)[C@H](C(C)C)NC(=O)[C@H](Cc2c[nH]c3ccccc23)NC(=O)[C@H](CC(=O)O)NC(=O)[C@H](Cc2ccc(OCC(=O)O)cc2)NC(=O)[C@H](CN)NC(=O)CSCC(C(=O)N[C@H](CC(=O)O)C(=O)NCCCCCCCCCCC(=O)O)NC(=O)[C@H]([C@@H](C)O)NC(=O)[C@H](C(C)C)NC(=O)[C@H](CC2CCCCC2)NC(=O)[C@H](Cc2cnc[nH]2)NC1=O (stereo partly drawn) [Compound 1121] ({CH2CO}-[Dap]Y(Carboxymethyl)DWV[Bip]V[Orn][dL]H[Cha]VT[ξC][dD][Aun]-OH; thioether N-14)
IC50: 27.4 nM

CC(C)C[C@H]1NC(=O)[C@H](CCCN)NC(=O)[C@H](C(C)C)NC(=O)[C@H](Cc2ccc(-c3ccccc3)cc2)NC(=O)[C@H](C(C)C)NC(=O)[C@H](Cc2c[nH]c3ccccc23)NC(=O)[C@H](CC(=O)O)NC(=O)[C@H](Cc2ccc(OCC(=O)O)cc2)NC(=O)[C@H](CN)NC(=O)CSCC(C(=O)N[C@H](CCC(=O)O)C(=O)NCCCCCCCCCCC(=O)O)NC(=O)[C@H]([C@@H](C)O)NC(=O)[C@H](C(C)C)NC(=O)[C@H](CC2CCCCC2)NC(=O)[C@H](Cc2cnc[nH]2)NC1=O (stereo partly drawn) [Compound 1122] ({CH2CO}-[Dap]Y(Carboxymethyl)DWV[Bip]V[Orn][dL]H[Cha]VT[ξC][dE][Aun]-OH; thioether N-14)
IC50: 42.4 nM

CC(C)C[C@H]1NC(=O)[C@H](CCCN)NC(=O)[C@H](C(C)C)NC(=O)[C@H](Cc2ccc(-c3ccccc3)cc2)NC(=O)[C@H](C(C)C)NC(=O)[C@H](Cc2c[nH]c3ccccc23)NC(=O)[C@H](CC(=O)O)NC(=O)[C@H](Cc2ccc(OCC(=O)O)cc2)NC(=O)[C@H](CN)NC(=O)CSCC(C(=O)N[C@H](CO)C(=O)NCCCCCCCCCCC(=O)O)NC(=O)[C@H]([C@@H](C)O)NC(=O)[C@H](C(C)C)NC(=O)[C@H](CC2CCCCC2)NC(=O)[C@H](Cc2cnc[nH]2)NC1=O (stereo partly drawn) [Compound 1123] ({CH2CO}-[Dap]Y(Carboxymethyl)DWV[Bip]V[Orn][dL]H[Cha]VT[ξC][dS][Aun]-OH; thioether N-14)
IC50: 48.4 nM

CC(C)C[C@H]1NC(=O)[C@H](CCCN)NC(=O)[C@H](C(C)C)NC(=O)[C@H](Cc2ccc(-c3ccccc3)cc2)NC(=O)[C@H](C(C)C)NC(=O)[C@H](Cc2c[nH]c3ccccc23)NC(=O)[C@H](CC(=O)O)NC(=O)[C@H](Cc2ccc(OCC(=O)O)cc2)NC(=O)[C@H](CN)NC(=O)CSC[C@@H](C(=O)N[C@H](Cc2cnc[nH]2)C(=O)NCCCCCCCCCCC(=O)O)NC(=O)[C@H]([C@@H](C)O)NC(=O)[C@H](C(C)C)NC(=O)[C@H](CC2CCCCC2)NC(=O)[C@H](Cc2cnc[nH]2)NC1=O [Compound 1124] ({CH2CO}-[Dap]Y(Carboxymethyl)DWV[Bip]V[Orn][dL]H[Cha]VTC[dH][Aun]-OH; thioether N-14)
IC50: 38.2 nM

CC(C)C[C@H]1NC(=O)[C@H](CCCN)NC(=O)[C@H](C(C)C)NC(=O)[C@H](Cc2ccc(-c3ccccc3)cc2)NC(=O)[C@H](C(C)C)NC(=O)[C@H](Cc2c[nH]c3ccccc23)NC(=O)[C@H](CC(=O)O)NC(=O)[C@H](Cc2ccc(OCC(=O)O)cc2)NC(=O)[C@H](CN)NC(=O)CSCC(C(=O)N[C@H](CC(N)=O)C(=O)NCCCCCCCCCCC(=O)O)NC(=O)[C@H]([C@@H](C)O)NC(=O)[C@H](C(C)C)NC(=O)[C@H](CC2CCCCC2)NC(=O)[C@H](Cc2cnc[nH]2)NC1=O (stereo partly drawn) [Compound 1125] ({CH2CO}-[Dap]Y(Carboxymethyl)DWV[Bip]V[Orn][dL]H[Cha]VT[ξC][dN][Aun]-OH; thioether N-14)
IC50: 35.6 nM

CC(C)C[C@H]1NC(=O)[C@H](CCCN)NC(=O)[C@H](C(C)C)NC(=O)[C@H](Cc2ccc(-c3ccccc3)cc2)NC(=O)[C@H](C(C)C)NC(=O)[C@H](Cc2c[nH]c3ccccc23)NC(=O)[C@H](CC(=O)O)NC(=O)[C@H](Cc2ccc(OCC(=O)O)cc2)NC(=O)[C@H](CN)NC(=O)CSCC(C(=O)N[C@@H](Cc2cnc[nH]2)C(=O)NCCCCCCCCCCC(=O)O)NC(=O)[C@H]([C@@H](C)O)NC(=O)[C@H](C(C)C)NC(=O)[C@H](CC2CCCCC2)NC(=O)[C@H](Cc2cnc[nH]2)NC1=O (stereo partly drawn) [Compound 1126] ({CH2CO}-[Dap]Y(Carboxymethyl)DWV[Bip]V[Orn][dL]H[Cha]VT[ξC]H[Aun]-OH; thioether N-14)
IC50: 74 nM

CC(C)C[C@H]1NC(=O)[C@H](CCCN)NC(=O)[C@H](C(C)C)NC(=O)[C@H](Cc2ccc(-c3ccccc3)cc2)NC(=O)[C@H](C(C)C)NC(=O)[C@H](Cc2c[nH]c3ccccc23)NC(=O)[C@H](CC(=O)O)NC(=O)[C@H](Cc2ccc(OCC(=O)O)cc2)NC(=O)[C@H](CN)NC(=O)CSC[C@@H](C(=O)NCCOCCOCC(=O)N[C@H](C)C(=O)NCCCCCCCCCCC(=O)O)NC(=O)[C@H]([C@@H](C)O)NC(=O)[C@H](C(C)C)NC(=O)[C@H](CC2CCCCC2)NC(=O)[C@H](Cc2cnc[nH]2)NC1=O [Compound 1127] ({CH2CO}-[Dap]Y(Carboxymethyl)DWV[Bip]V[Orn][dL]H[Cha]VTC[AEEA][dA][Aun]-OH; thioether N-14)
IC50: 25.6 nM

CC(C)C[C@H]1NC(=O)[C@H](CCCN)NC(=O)[C@H](C(C)C)NC(=O)[C@H](Cc2ccc(-c3ccccc3)cc2)NC(=O)[C@H](C(C)C)NC(=O)[C@H](Cc2c[nH]c3ccccc23)NC(=O)[C@H](CC(=O)O)NC(=O)[C@H](Cc2ccc(OCC(=O)O)cc2)NC(=O)[C@H](CN)NC(=O)CSC[C@@H](C(=O)NCCOCCOCC(=O)N[C@H](CN)C(=O)NCCCCCCCCCCC(=O)O)NC(=O)[C@H]([C@@H](C)O)NC(=O)[C@H](C(C)C)NC(=O)[C@H](CC2CCCCC2)NC(=O)[C@H](Cc2cnc[nH]2)NC1=O [Compound 1128] ({CH2CO}-[Dap]Y(Carboxymethyl)DWV[Bip]V[Orn][dL]H[Cha]VTC[AEEA][dDap][Aun]-OH; thioether N-14)
IC50: 28.7 nM
